Test results published in US8936941B2, “Compositions useful for cancer detection and treatment, a cancer stem cell model, and methods of production and use thereof” (priority 2008, dated 2015).
“Also recorded” adds a separate entry of the source.

Assays:
PICSCs [1] = test: Growth and survival of PICSCs after drug treatment; type: cell-based, mouse
Experimental: The PICSCs cells were treated with 100 μM drug (suprapharmacological dose) for 48 hours, and their growth and survival were evaluated. […] Moreover, the in vitro testing strategies allows for a mechanistic study of such compounds.

PICSCs [2] = test: LIVE/DEAD Viability/Cytotoxicity Assay on PICSCs; type: cell-based, mouse; conditions: 48 hours, single agent
Experimental: This Example is directed to stem cell assays utilizing PICSCs generated in accordance with the presently disclosed and claimed inventive concept(s). The PICSCs were generated as described herein above (i.e., transformation of NIH-3T3 cells with RBM3 gene, followed by transplantation into a nude mouse, then sorting of cells obtained from generated tumors utilizing DCAMKL-1).
The PICSCs were exposed to various compounds/anti-cancer agents, and cell viability assays were then performed using the LIVE/DEAD® Viability/Cytotoxicity Assay from Molecular Probes/Invitrogen (Eugene, Oreg.). The LIVE/DEAD® Viability/Cytotoxicity Assay is an assay that provides a two-color fluorescence cell viability that is based on the simultaneous determination of both live and dead cells.
Briefly, PICSCs cells were grown in a 96 well microtitre plate ([…], Newton, N.C.) to about 40% confluency and treated with anti-cancer agents/compounds for 48 hours. Subsequently, chromogenic substrates Calcein AM and Ethidium homodimer-1 (EthD-1) was added to the cells. Calcein AM is well retained within the live cells, producing uniform green fluorescence in live cells (measured at 515 nM). EthD-1 enters cells with damaged membranes and undergoes an enhancement of fluorescence upon binding to nucleic acids, thereby producing a bright red fluorescence in dead cells (measured at 617 nM). The fluorescence measurement was carried out using a microtitre plate reader (Synergy HT, BIO-TEK, Vinooski, Vt.).
In FIGS. 70-84, the PICSCs were treated with increasing concentrations of various compounds or combinations of compounds for 48 hours, and the data presented therein is represented as a % Dead/Live cells ratio following said treatment. […] Values in each figure are given as average±Standard Error Mean, and asterisks denote statistically significant differences (*p<0.01) compared with control.

HCV subgenomic replicon = test: HCV replication in GS5 cells (Huh7.5 with HCV subgenomic replicon); type: cell-based, hepatitis C virus; conditions: disruption of microtubules
Experimental: FIG. 61 illustrates that DCAMKL-1 is required for the HCV replication. A. siRNA against DCAMKL-1 (Si-DCAMKL1, 50 nM and 100 nM) or scrambled siRNA (SCR, 100 nM) were transfected into GS5 cells. Total RNAs were extracted and subjected to real-time quantitative PCR. The levels of HCV and DCAMKL-1 RNAs were considered arbitrary as one unit in untransfected GS5 cells (Cont). Actin mRNA in each sample was used as internal control for PCR. B. Western blot analysis of siRNAs tranfected and untransfected samples as indicated.
Induction of putative stem cell/pluripotency factors by HCV: Normal adult hepatocytes are fully differentiated cells and lack expression of pluripotency factors. However, these cells can be induced to proliferate rapidly after partial hepatectomy and can also be reprogrammed into stem-like cells by forced expression of a cocktail of transcription factors. Thus, the impact of HCV on expression pattern of stem/progenitor cell markers was investigated in GS5 cells, which are derived from hepatoma cell line (Huh7.5) and support constitutive replication of a subgenomic HCV replicon under G418 selection. The replicon expresses HCV nonstructural proteins NS3 through NS5B of the HCV-1a strain and green florescent protein (GFP)-NS5A chimera. Total lysates from parent Huh7.5 and GS5 cells were subjected to Western blot analysis (FIG. 59).
Putative intestinal stem cell marker DCAMKL1 is required for the HCV replication: The eccentric, punctate staining of HCV replication complexes consisting of most of the nonstructural proteins and cellular factors has been a puzzling question. It is known that these replication complexes associate with microtubules in order to replicate the HCV RNA. The DCAMKL1 protein, which binds and polymerizes tubulin into microtubule filaments, is considered as a putative marker for quiescent stem cells in the intestine, and its expression is increased in cancer stem cells. During confocal microscopy, most DCAMKL1 localization was consistently observed in the area containing replication complexes (indicated by NS5A-GFP) and high concentration of microtubules (FIG. 60). The perinuclear co-localization of DCAMKL1 with the NS5A-GFP (indicated by yellow stain) was also observed.

PICSC tumor xenografts = test: PICSC generated isograft tumor growth in mice; type: in vivo; conditions: mouse, in vivo
Experimental: To determine whether targeted DCAMKL-1 downregulation and/or Notch inhibition affected […] generated isograft tumor growth, mice were treated with siRNA to DCAMKL-1 or the Notch inhibitor DAPT. After the tumors were allowed to develop (15 days), siRNA was injected a total of 5 times at an interval of 3 days as described earlier.

HCT116 tumor xenografts = test: HCT116 tumor xenograft model in athymic nude mice, intratumoral treatment; type: in vivo; conditions: HCT 116-induced tumor xenograft, via induction of apoptosis
Description: Real-time reverse transcription-PCR analyses. Total RNA isolated either from cells or from human colon cancer cell tumor xenograft samples was subjected to reverse transcription with Superscript™ II RNase H—Reverse Transcriptase and random hexanucleotide primers (Invitrogen, Carlsbad, Calif.). The cDNA was subsequently used to perform Real-time PCR by SYBR chemistry (SYBR® Green I; Molecular Probes) for specific transcripts using gene specific primers and Jumpstart Taq DNA polymerase (Sigma-Aldrich, St. Louis, Mo.). […] The changes in mRNA were expressed as fold change relative to control with ±SEM value.
miRNA analysis. Total miRNA was isolated using mirVana™ miRNA isolation kit (Ambion Inc.). Total miRNA isolated either from cells or from human colon cancer cell tumor xenograft samples were subjected to reverse transcription with Superscript™ II RNase H—Reverse Transcriptase and random hexanucleotide primers (Invitrogen, Carlsbad, Calif.). The cDNA was subsequently used to perform Real-time PCR by SYBR chemistry (SYBR® Green I; Molecular Probes) for pri-let-7a transcript using specific primers and Jumpstart Taq DNA polymerase (Sigma-Aldrich, St. Louis, Mo.). […] The changes in pri-miRNA were expressed as fold change relative to control with ±SEM value. Primers used are: […]
Western Blot analysis. HCT116 and SW480 cells were cultured in a 6 well plates to 40% confluency and were transfected with si-DCAMKL-1 or si-Scr for 72 h. Cells or the tumor xenograft samples were lysed and the concentration of protein was determined by BCA protein assay kit (Pierce Biotechnology Inc., Rockford, Ill.). […] The membrane was blocked in 5% non-fat dry milk for 1 h and probed overnight with a rabbit anti-DCAMKL-1 antibody (Abcam Inc., Cambridge, Mass.) or with rabbit anti-c-Myc antibody (Santa Cruz). Subsequently, the membrane was incubated with anti-rabbit or anti-goat IgG horseradish peroxidase-conjugated antibodies (Amersham-Pharmacia) for 1 h at room temperature. The 82 kDa DCAMKL-1 and 49 kDa c-Myc proteins were detected using ECL™ Western Blotting detection reagents (Amersham-Pharmacia). Actin (43 kDa), used as loading control was identified using a goat polyclonal IgG (Santa Cruz Biotechnology Inc., Santa Cruz, Calif.).
Immunohistochemistry. Heat Induced Epitope Retrieval was performed on 4 μm formalin-fixed paraffin-embedded sections utilizing a pressurized Decloaking Chamber (Biocare Medical) in citrate buffer (pH 6.0) at 99° C. for 18 min. (a) Brightfield: Slides were incubated in 3% hydrogen peroxide, then normal serum and BSA at room temperature for 20 min. After incubation with primary antibody [DCAMKL-1 C-terminal (Abcam), anti-c-Myc (Santa Cruz Biotechnologies), L-FABP (Santa Cruz Biotechnologies)], the slides were incubated in peroxidase-conjugated EnVision™+polymer detection kit (DAKO). Slides were developed with Diaminobenzidine (Sigma). (b) Fluorescence: Slides were first incubated in Image-iT FX signal enhancer (Invitrogen), followed by normal serum and BSA at room temperature for 20 min.
Xenograft tumor model. (a) Liposomal preparation: siRNA was administered into the xenografts after incorporation into 1,2-Dioleoyl-sn-Glycero-3-Phosphocholine (DOPC) (Avanti Polar Lipids, Alabaster, Ala.). DOPC and siRNA were mixed in the presence of excess tertiary butanol at a ratio of 1:10 (w/w) (siRNA/DOPC). Tween 20 (Sigma-Aldrich) was added to the mixture at a ratio of 1:19 Tween 20:siRNA/DOPC. The mixture was vortexed and frozen in an acetone/dry ice bath and lyophilized. Before administration, the siRNA preparation was reconstituted in 0.9% sterile saline and injected at a dose of 50 μl (5 μM) per injection. (b) Tumor therapy: Female athymic nude mice (NCr-nu) were purchased from the National Cancer Institute-Frederick Cancer Research and Development Center (Frederick, Md.) and housed in specific pathogen-free conditions.

[3] = test system: Pdx1-Cre; LSL-KRAS^G12D; p53^lox/+ mouse model of pancreatic neoplasia; conditions: inhibition of Notch signaling; cited from earlier work

CCc1c2c(nc3ccc(OC(=O)N4CCC(N5CCCCC5)CC4)cc13)-c1cc3c(c(=O)n1C2)COC(=O)[C@]3(O)CC [CPT-11, Irinotecan]
growth and survival of PICSCs (PICSCs [1]; 100 μM drug, 48 hours): no significant effect
PICSC cell death (% Dead/Live cells ratio) (PICSCs [2]): no cell death

CC[C@]1(O)C[C@@H]2CN(CCc3c([nH]c4ccccc34)[C@@](C(=O)OC)(c3cc4c(cc3OC)N(C)[C@H]3[C@@](O)(C(=O)OC)[C@H](OC(C)=O)[C@]5(CC)C=CCN6CC[C@]43[C@@H]65)C2)C1 [vinblastin, reference compound]
HCV replication (HCV subgenomic replicon): inhibition

COc1cc(/C=C/C(=O)CC(=O)/C=C/c2ccc(O)c(OC)c2)ccc1O [curcumin]
neurite formation, cell growth and cell death of PICSCs (PICSCs [1]; 30 μM): inhibited neurite formation, suppressed cell growth and induced cell death

O=C1C(=Cc2ccccc2F)CNCC1=Cc1ccccc1F [EF24, 3,5-bis(2-fluorobenzylidene)piperidin-4-one]
neurite formation, cell growth and cell death of PICSCs (PICSCs [1]; 1 μM): inhibited neurite formation, suppressed cell growth and induced cell death
PICSC cell death (% Dead/Live cells ratio) (PICSCs [2]): increasing levels of PICSC cell death
anti-CSC growth properties (PICSC tumor xenografts): potent anti-CSC growth properties
tumor xenograft growth (HCT116 tumor xenografts): significantly inhibited

O=S1(=O)N[C@@]2(CN1CC(F)(F)F)[C@@H]1CC[C@H]2Cc2ccc(/C=C/CN3CCC(C(F)(F)F)CC3)cc2C1 [MRK-003]
tumor development [3]: completely inhibited tumor development; also recorded: completely blocked tumor development

N.N.[Cl][Pt][Cl] [Cisplatin]
PICSC cell death (% Dead/Live cells ratio) (PICSCs [2]): increasing levels of PICSC cell death

C[C@H](NC(=O)Cc1cc(F)cc(F)c1)C(=O)N[C@H](C(=O)OC(C)(C)C)c1ccccc1 [DAPT]
PICSC cell death (% Dead/Live cells ratio) (PICSCs [2]): increasing levels of PICSC cell death
anti-CSC growth properties (PICSC tumor xenografts): potent anti-CSC growth properties

OO [hydrogen peroxide]
PICSC cell death (% Dead/Live cells ratio) (PICSCs [2]): complete cell death

Nc1ccn([C@@H]2O[C@H](CO)[C@@H](O)C2(F)F)c(=O)n1 [Gemcitabine]
PICSC cell death (% Dead/Live cells ratio) (PICSCs [2]): significant increase in PICSC cell death
